Values quoted from earlier work as cited in article PMC8288134, “Synthesis, potential antitumor activity, cell cycle analysis, and multitarget mechanisms of novel hydrazones incorporating a 4-methylsulfonylbenzene scaffold: a molecular docking study” (Journal of Enzyme Inhibition and Medicinal Chemistry, 2021).

Columns and labels:
SK-MEL-28 = test system: SK-MEL-28; design: method as in https://dtp.cancer.gov/dtpstandard/dwindex/index.jsp; settings: reference drugs, ref https://dtp.cancer.gov/dtpstandard/dwindex/index.jsp; cited from earlier work
OVCAR-8 = test system: OVCAR-8; design: method as in https://dtp.cancer.gov/dtpstandard/dwindex/index.jsp; settings: reference drugs, ref https://dtp.cancer.gov/dtpstandard/dwindex/index.jsp; cited from earlier work
COLO 205 = test system: COLO 205; design: method as in https://dtp.cancer.gov/dtpstandard/dwindex/index.jsp; settings: reference drugs, ref https://dtp.cancer.gov/dtpstandard/dwindex/index.jsp; cited from earlier work
[1] = test system: CNS cancer tumour cell lines; settings: cited from earlier work; for GI50: read-out: GI50 (subpanel average), reference drugs, ref https://dtp.cancer.gov/dtpstandard/dwindex/index.jsp; for CC50: read-out: LC50 (subpanel average), reference drugs, ref https://dtp.cancer.gov/dtpstandard/dwindex/index.jsp; for TGI (subpanel average): reference drugs, ref https://dtp.cancer.gov/dtpstandard/dwindex/index.jsp
NCI/ADR-RES = test system: NCI/ADR-RES; design: method as in https://dtp.cancer.gov/dtpstandard/dwindex/index.jsp; settings: reference drugs, ref https://dtp.cancer.gov/dtpstandard/dwindex/index.jsp; cited from earlier work
ACHN = test system: ACHN; design: method as in https://dtp.cancer.gov/dtpstandard/dwindex/index.jsp; settings: reference drugs, ref https://dtp.cancer.gov/dtpstandard/dwindex/index.jsp; cited from earlier work
HCT-15 = test system: HCT-15; design: method as in https://dtp.cancer.gov/dtpstandard/dwindex/index.jsp; settings: reference drugs, ref https://dtp.cancer.gov/dtpstandard/dwindex/index.jsp; cited from earlier work
OVCAR-3 = test system: OVCAR-3; design: method as in https://dtp.cancer.gov/dtpstandard/dwindex/index.jsp; settings: reference drugs, ref https://dtp.cancer.gov/dtpstandard/dwindex/index.jsp; cited from earlier work
MCF7 = test system: MCF7; design: method as in https://dtp.cancer.gov/dtpstandard/dwindex/index.jsp; settings: reference drugs, ref https://dtp.cancer.gov/dtpstandard/dwindex/index.jsp; cited from earlier work
SR = test system: SR; design: method as in https://dtp.cancer.gov/dtpstandard/dwindex/index.jsp; settings: reference drugs, ref https://dtp.cancer.gov/dtpstandard/dwindex/index.jsp; cited from earlier work
SK-MEL-2 = test system: SK-MEL-2; design: method as in https://dtp.cancer.gov/dtpstandard/dwindex/index.jsp; settings: reference drugs, ref https://dtp.cancer.gov/dtpstandard/dwindex/index.jsp; cited from earlier work
HT29 = test system: HT29; design: method as in https://dtp.cancer.gov/dtpstandard/dwindex/index.jsp; settings: reference drugs, ref https://dtp.cancer.gov/dtpstandard/dwindex/index.jsp; cited from earlier work
LOX IMVI = test system: LOX IMVI; design: method as in https://dtp.cancer.gov/dtpstandard/dwindex/index.jsp; settings: reference drugs, ref https://dtp.cancer.gov/dtpstandard/dwindex/index.jsp; cited from earlier work
SF-539 = test system: SF-539; design: method as in https://dtp.cancer.gov/dtpstandard/dwindex/index.jsp; settings: reference drugs, ref https://dtp.cancer.gov/dtpstandard/dwindex/index.jsp; cited from earlier work
KM12 = test system: KM12; design: method as in https://dtp.cancer.gov/dtpstandard/dwindex/index.jsp; settings: reference drugs, ref https://dtp.cancer.gov/dtpstandard/dwindex/index.jsp; cited from earlier work

SMILES | GI50 (SK-MEL-28) [µM] | GI50 (OVCAR-8) [µM] | GI50 (COLO 205) [µM] | GI50 [1] [µM] | CC50 [1] [µM] | TGI (subpanel average) [1] [µM] | GI50 (NCI/ADR-RES) [µM] | GI50 (ACHN) [µM] | GI50 (HCT-15) [µM] | GI50 (OVCAR-3) [µM] | GI50 (MCF7) [µM] | GI50 (SR) [µM] | GI50 (SK-MEL-2) [µM] | GI50 (HT29) [µM] | GI50 (LOX IMVI) [µM] | GI50 (SF-539) [µM] | GI50 (KM12) [µM]
CNC(=O)c1cc(Oc2ccc(NC(=O)Nc3ccc(Cl)c(C(F)(F)F)c3)cc2)ccn1 [Sorafenib, sorafenib] | 2.51 | 3.16 | 1.99 | 2.33 | 27.8 | 7.64 | 2.51 | 2.51 | 2.51 | 3.16 | 2.51 | 3.16 | 1.99 | 1.99 |  |  | 
C#Cc1cccc(Nc2ncnc3cc(OCCOC)c(OCCOC)cc23)c1 [Erlotinib, erlotinib] | 50.1 | 7.94 | 50.1 | 17 | > 100 | 82.11 | 7.94 | 0.199 | 3.98 | 3.98 | 100 | 10 | 6.31 | 63.1 | 6.31 | 19.9 | 79.4
Cc1ccc(-c2cc(C(F)(F)F)nn2-c2ccc(S(N)(=O)=O)cc2)cc1 [Celecoxib, celecoxib] | 15.8 | 19.9 | 15.8 | 17.2 | 58.8 | 31.62 | 15.8 | 15.8 | 15.8 | 15.8 | 15.8 | 15.8 | 15.8 | 15.8 | 19.9 | 19.9 | 15.8
CS(=O)(=O)c1ccc(C(=O)Nc2ccc(Cl)c(-c3ccccn3)c2)c(Cl)c1 [Vismodegib, vismodegib] | 39.8 | 31.6 | 39.8 |  |  |  | 31.6 | 39.8 | 31.6 | 50.1 | 31.6 | 39.8 | 39.8 | 25.1 | 39.8 | 50.1 | 31.6
COc1cc2ncnc(Nc3ccc(F)c(Cl)c3)c2cc1OCCCN1CCOCC1 [Gefitinib, gefitinib] | 3.16 |  | 7.94 | 5.64 |  | 19.62 | 1.26 | 0.158 | 3.98 |  |  | 3.16 | 10 | 3.98 | 3.16 | 10 | 10
